In ChEMBL document CHEMBL2321746, “Cloning, characterization, and sulfonamide and thiol inhibition studies of an α-carbonic anhydrase from Trypanosoma cruzi, the causative agent of Chagas disease” (J Med Chem, 2013):

Tests used:
Type in all cases: functional
[1] = tested on: Trypanosoma cruzi; test: Antitrypanosomal activity against Trypanosoma cruzi Y epimastigotes at 256 uM incubated for 48 hrs by resazurin dye reduction based ELISA method
[2] = tested on: Trypanosoma cruzi; test: Antitrypanosomal activity against Trypanosoma cruzi DM28 epimastigotes at 256 uM incubated for 48 hrs by resazurin dye reduction based ELISA method; conditions: DM28, 48 h
[3] = tested on: Trypanosoma cruzi; test: Antitrypanosomal activity against Trypanosoma cruzi DM28 epimastigotes at 128 uM incubated for 48 hrs by resazurin dye reduction based ELISA method; conditions: DM28, 48 h
[4] = tested on: Trypanosoma cruzi; test: Antitrypanosomal activity against Trypanosoma cruzi Y epimastigotes at 64 uM incubated for 48 hrs by resazurin dye reduction based ELISA method
[5] = tested on: Trypanosoma cruzi; test: Antitrypanosomal activity against Trypanosoma cruzi Y epimastigotes at 128 uM incubated for 48 hrs by resazurin dye reduction based ELISA method
[6] = tested on: Trypanosoma cruzi; test: Antitrypanosomal activity against Trypanosoma cruzi Y epimastigotes at 8 uM incubated for 48 hrs by resazurin dye reduction based ELISA method
[7] = tested on: Trypanosoma cruzi; test: Antitrypanosomal activity against Trypanosoma cruzi Y epimastigotes at 32 uM incubated for 48 hrs by resazurin dye reduction based ELISA method
[8] = tested on: Trypanosoma cruzi; test: Antitrypanosomal activity against Trypanosoma cruzi Y epimastigotes at 16 uM incubated for 48 hrs by resazurin dye reduction based ELISA method

SMILES | inhibition at 256 µM [1] [%] | inhibition at 256 µM [2] [%] | inhibition at 128 µM [3] [%] | inhibition at 64 µM [4] [%] | inhibition at 128 µM [5] [%] | inhibition at 8 µM [6] [%] | inhibition at 32 µM [7] [%] | inhibition at 16 µM [8] [%]
O=C(N/N=C\c1cccc(Br)c1)Nc1nnc(S)s1 | 58 | 34 |  |  |  |  |  | 
C/C(=N/NC(=O)Nc1nnc(S)s1)c1ccc(Cl)cc1 | 32 | 0 |  |  |  |  |  | 
C/C(CC(C)C)=N/NC(=O)Nc1nnc(S)s1 | 43 | 20 |  |  |  |  |  | 
O=C(N/N=C\c1ccccc1)Nc1nnc(S)s1 | 87 | 87 | 43 | 64 | 84 |  |  | 
O=C(N/N=C\c1ccc(Cl)cc1)Nc1nnc(S)s1 | 67 | 10 |  |  | 51 |  |  | 
COc1cccc(/C=N\NC(=O)Nc2nnc(S)s2)c1 | 77 | 43 |  |  | 44 |  |  | 
O=C(N/N=C1\C(=O)Nc2ccc(Br)cc21)Nc1n[nH]c(=S)s1 | 20 | 22 |  |  |  |  |  | 
O=C(N/N=C1\C(=O)Nc2ccccc21)Nc1n[nH]c(=S)s1 | 30 | 9 |  |  |  |  |  | 
O=C(Cn1ccnc1[N+](=O)[O-])NCc1ccccc1 [BENZNIDAZOLE] | 91 |  |  | 75 | 80 | 51 | 60 | 66
